We go through nine molecules from patent US4454065A, “Oligopeptide prodrugs” (SmithKline Beckman Corporation, priority 1983, dated 1984).

One data set has as its system Candida albicans. The experiment in a line: Disk diffusion method, fungi (Method/Test A). The note with it: for zone (Test A, disk diffusion; quantity not given): C. albicans B-311; for zone size: C. albicans. The class given is cell-based. The method, then:
(§1) A. Fungi (Disk diffusion method):
(§2) Candida albicans strains B-311 and BC 759, obtained from Smith Kline and French Laboratory Culture Collection were grown in a trypticase soy broth at 28° for 7 hours. The seeded plates, with this medium containing 1.5% agar, were prepared by inoculating 1 ml of the inoculum in 1 l. of yeast-carbon base medium, containing 200 μg/ml of lysine or glutamate as a sole source of nitrogen.
For orientation: A growth-free zone around the sample is the usual read-out of agar diffusion tests.

In another data set the test system is C. albicans. In words: Minimum inhibitory concentration, two-fold broth dilution (Method/Test B). It counts as cell-based, Candida albicans. The method, then:
(§3) B. Fungi [Minimum inhibitory […] (MIC)]:
(§4) The minimum inhibitory concentration of the test compound was determined by two-fold broth dilution tests in yeast carbon base medium, containing 200 μg/ml of sodium glutamate. The compounds were diluted from […] to 0.25 μg/ml and the test medium was inoculated with a suspension of C. albicans grown in the same medium for 15 hours at 37°. The final inoculum sizes in the tests we approximately 10^4 cfu/ml and 10^3 cfu/ml. The tubes were incubated at 37° for 24 and 48 hours and observed for inhibition.
For orientation: Broth dilution looks for growth in wells or tubes with falling amounts of substance.

The subject of a further data set is E. coli M. 2626. The experiment in a line: Disk diffusion method, bacteria (Method C). The note with it: Escherichia coli. The class given is cell-based. An excerpt: C. Bacteria (Disk diffusion method): A method similar to A above but using E. coli was used which employs a M-9 medium (basic salts with ammonium ion as the nitrogen source and glucose as the carbon source).

Data set [1] has as its system representative fungal and bacterial organisms. The experiment in a line: Biological screen described in the utility example. It counts as cell-based. Particulars: product found to be not completely deblocked. The method, then:
A prototypal compound, L-alanyl-2-(5-fluorouracil-2-yl)-L-glycine, was evaluated against representative fungal and bacterial organisms.
as §1, §2, §3, §4
C. Bacteria (Disk diffusion method):
A method similar to A above but using E. coli was used which employs a M-9 medium (basic salts with ammonium ion as the nitrogen source and glucose as the carbon source).

A further data set addresses leucine aminopeptidase (Sus scrofa, UniProt P28839). The experiment in a line: Detector peptide as enzyme substrate, leucine aminopeptidase. It counts as biochemical. An excerpt:
(§5) The compounds of formula I or IA in which W is a C1-6 -alkylthio, a functionalized C1-6 -alkylthio for example a C1-6 -aminoalkylthio or a phenylthio as defined above by formula II are of particular utility for detecting protease/peptidase activity in biological systems. For example, the compounds are more sensitive chromogenic detectors of protease activity in biological liquids, such as serum, than is leucine p-nitroanilide. This utility depends on the release, by protease action, of the mercaptan, H-S-R^2, which is assayed quantitatively by colorimetry using Ellman's reagent as described in the examples.

In a further data set the target is aminopeptidase M (Homo sapiens, UniProt P15144). The experiment in a line: Detector peptide as enzyme substrate, aminopeptidase M. The class given is biochemical.
Chain of aminopeptidase M (P15144 whole entry, species assumed): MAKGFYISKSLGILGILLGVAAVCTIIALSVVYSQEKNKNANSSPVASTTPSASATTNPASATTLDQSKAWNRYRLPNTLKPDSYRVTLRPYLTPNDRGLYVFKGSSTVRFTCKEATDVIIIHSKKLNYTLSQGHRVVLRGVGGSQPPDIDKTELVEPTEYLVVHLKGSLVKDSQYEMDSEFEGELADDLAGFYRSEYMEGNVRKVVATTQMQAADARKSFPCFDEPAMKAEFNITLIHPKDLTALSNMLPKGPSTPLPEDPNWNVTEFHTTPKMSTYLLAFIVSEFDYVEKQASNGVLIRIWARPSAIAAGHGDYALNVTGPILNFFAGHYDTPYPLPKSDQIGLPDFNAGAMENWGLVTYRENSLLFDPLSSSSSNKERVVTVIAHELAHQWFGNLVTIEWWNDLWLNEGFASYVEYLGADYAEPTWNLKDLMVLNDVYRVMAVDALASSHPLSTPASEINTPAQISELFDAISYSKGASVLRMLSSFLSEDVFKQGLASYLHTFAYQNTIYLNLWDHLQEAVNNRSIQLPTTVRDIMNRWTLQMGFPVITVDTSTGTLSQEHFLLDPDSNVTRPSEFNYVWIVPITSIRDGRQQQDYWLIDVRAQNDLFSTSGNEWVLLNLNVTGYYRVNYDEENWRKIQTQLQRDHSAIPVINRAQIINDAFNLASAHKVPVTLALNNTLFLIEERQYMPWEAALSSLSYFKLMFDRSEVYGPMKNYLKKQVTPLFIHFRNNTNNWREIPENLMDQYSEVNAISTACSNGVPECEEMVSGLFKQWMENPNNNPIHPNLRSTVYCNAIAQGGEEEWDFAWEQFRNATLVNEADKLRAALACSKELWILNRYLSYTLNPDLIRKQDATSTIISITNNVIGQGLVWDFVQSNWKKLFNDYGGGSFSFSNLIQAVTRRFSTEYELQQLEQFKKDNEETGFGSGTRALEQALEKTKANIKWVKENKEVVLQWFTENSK
Excerpt: as §5

Data set [2] is described as follows: Stability in aqueous phosphate buffer, spontaneous warhead release (Ellman reagent, 412 nm). It counts as physicochemical. The note with it: for λ(412) absorbance: before enzyme. The method, then: (§6) The release was maintained at a linear rate over the observation period (5 min). […] This observation is consistent with literature reports of the optimal pH necessary for the efficacy of this enzyme.
(§7) These observations were obtained by colorimetric assay, which involves the reaction between a free sulfhydryl group and 5,5'-dithio-bis(2-nitrobenzoic acid), the Ellman reagent, to produce a yellow color as follows: [drawing 12]
(§8) The peptide from Example 4 was dissolved in 4 mM of phosphate buffer solution (pH 7) containing in Ellman reagent at a level of 4 mg/ml to produce a 1 mM solution of the peptide. The resulting mixture was monitored using a spectrophotometer at a wavelength of 412 nm. To 1 ml of this solution was added 100 μg of hog kidney leucine aminopeptidase (Sigma) and the enzymatic hydrolysis was continuously monitored at 412 nm.
(§9) Reaction mixture contained 1 mM peptide, Ellman's reagent 4 mg/ml, phosphate buffer 4 mM (pH 7).

In data set [3] the test system is hog kidney leucine aminopeptidase. The experiment in a line: Enzyme catalyzed warhead release (Ellman reagent, 412 nm). It counts as biochemical. The note with it: for λ(412) absorbance: enzyme added. The protocol:
as §6, §7, §8, §9
A general note: In Ellman's method for cholinesterases, released thiocholine reacts with DTNB.

Data set [4] shares this test system. The data set is described as above. The class given is biochemical. Particulars: pH 7.5.
In another data set the test system is Fasciola hepatica. Particulars: mice, subcutaneously 15 mg/kg for eight days; compared with albendazole.
A further data set concerns Nematospiroides dubius. The note with it: mice, subcutaneously 15 mg/kg for eight days; compared with albendazole.
In the next data set the test system is Caenorhabditis elegans. The note with it: concentrations of 10 and 100 μg/ml.
The target in another data set is T1, trypsin (Bos taurus, UniProt P00760).
T1 construct: gene PRSS1
T1 sequence (P00760 24-246): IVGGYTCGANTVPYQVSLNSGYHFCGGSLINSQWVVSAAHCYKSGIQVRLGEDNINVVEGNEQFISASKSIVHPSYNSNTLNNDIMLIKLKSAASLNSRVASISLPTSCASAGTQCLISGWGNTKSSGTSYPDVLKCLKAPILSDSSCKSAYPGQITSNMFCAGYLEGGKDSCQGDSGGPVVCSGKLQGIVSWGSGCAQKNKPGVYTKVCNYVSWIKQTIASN
The experiment in a line: Detector peptide as enzyme substrate, trypsin. The class given is biochemical.
Excerpt: as §5

Converted amounts (≈) assume the structure as drawn. Where two headings read alike, the source gives them in different places.

Chain of leucine aminopeptidase (P28839 whole entry): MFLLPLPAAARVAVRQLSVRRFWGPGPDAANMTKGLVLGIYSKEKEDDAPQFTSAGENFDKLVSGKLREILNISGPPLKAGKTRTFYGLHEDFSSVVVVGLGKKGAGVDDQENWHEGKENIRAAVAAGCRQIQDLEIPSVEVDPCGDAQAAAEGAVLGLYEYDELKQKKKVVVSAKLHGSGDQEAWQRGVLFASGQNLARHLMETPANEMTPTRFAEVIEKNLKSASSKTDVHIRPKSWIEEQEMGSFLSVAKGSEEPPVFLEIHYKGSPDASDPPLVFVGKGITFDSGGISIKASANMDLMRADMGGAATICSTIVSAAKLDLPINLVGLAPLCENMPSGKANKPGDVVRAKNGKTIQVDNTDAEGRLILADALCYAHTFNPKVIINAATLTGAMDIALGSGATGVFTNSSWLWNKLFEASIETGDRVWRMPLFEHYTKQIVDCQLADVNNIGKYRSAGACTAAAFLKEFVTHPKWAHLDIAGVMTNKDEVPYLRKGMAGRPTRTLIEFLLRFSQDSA

The term MIC denotes the lowest concentration that inhibits growth of the organism. For the molecule `C[C@H](N)C(=O)NC(C(=O)O)n1cc(F)c(=O)[nH]c1=O` (mixture of isomers) [Example 2, L-alanyl-2-(5-fluorouracil-1-yl)-D,L-glycine], the zone (Test A, disk diffusion; quantity not given) in the data set on Candida albicans (Conc. 1.5 μg/desk, listed as L-DL) amounted to 12 mm; in the data set with Candida albicans (Conc. 3.0 μg/desk, listed as L-DL) it was 18 mm; with Candida albicans (Conc. 6.0 μg/desk, listed as L-DL), 20 mm; in the data set on Candida albicans (Conc. 12.5 μg/desk, listed as L-DL), 20 mm; with Candida albicans (Conc. 25 μg/desk, listed as L-DL) it was 20 mm. Besides, the MIC against C. albicans (C. albicans strain 3153A, listed as L-DL) was found to be 25 µg/mL; in the data set with C. albicans (C. albicans strain B 311, listed as L-DL) it was 25 µg/mL; against C. albicans (C. albicans strain BC 759, listed as L-DL), 6.3 µg/mL.

The zone of inhibition is the size of the clear area around the sample on an inoculated plate. The low end stands for little suppression of growth, the high end for wide suppression of growth. In the case of `O=c1[nH]cc(F)c(=O)[nH]1` [Example 5-FU, 5-fluorouracil, reference compound], the zone (Test A, disk diffusion; quantity not given) in the data set with Candida albicans (Conc. 1.5 μg/desk) stood at 22 mm; with Candida albicans (Conc. 3.0 μg/desk) it was 30 mm; with Candida albicans (Conc. 6.0 μg/desk), 30 mm; with Candida albicans (Conc. 12.5 μg/desk), 40 mm; with Candida albicans (Conc. 25 μg/desk), 44 mm. Moreover, the MIC in the data set with C. albicans (Candida albicans, C. albicans strain 3153A, read-out: MIC) was 1 µg/mL (≈ 7.69 µM); with C. albicans (Candida albicans, C. albicans strain B 311, read-out: MIC), 4 µg/mL (≈ 30.8 µM); with C. albicans (Candida albicans, C. albicans strain BC 759, read-out: MIC), 1 µg/mL (≈ 7.69 µM). The same molecule gave a zone of inhibition at 1.5 µg/disc in the data set on E. coli M. 2626 (conc. 1.5 μg/disk) of 33 mm. The molecule also yielded a zone of inhibition at 3 µg/disc in the data set with E. coli M. 2626 (conc. 3.0 μg/disk) of 38 mm. In the data set with E. coli M. 2626 (conc. 6.0 μg/disk), this molecule gave a zone of inhibition at 6 µg/disc of 40 mm. In addition, the zone of inhibition at 12.5 µg/disc in the data set with E. coli M. 2626 (conc. 12.5 μg/disk) came to 41 mm. The molecule further displayed a zone of inhibition at 25 µg/disc in the data set with E. coli M. 2626 (conc. 25.0 μg/disk) of 46 mm.

Consider `C[C@H](N)C(=O)NC(NNS(=O)(=O)c1cc(C(=O)O)cc(C(=O)O)c1)C(=O)O` (stereo partly drawn) [Example 12, L-alanyl-2-(3,5-dicarboxy-phenylsulfohydrazino)-D,L-glycine], for which, in data set [1], the “activity in the biological screen” value was “not active”.

For the molecule `C[C@H](N)C(=O)NC(C(=O)O)n1cc(F)c(=O)[nH]c1=O` (stereo partly drawn) [L-alanyl-2-(5-fluorouracil-1-yl)-D-glycine], the zone (Test A, disk diffusion; quantity not given) stood at 0 mm in the data set on Candida albicans (Conc. 1.5 μg/desk, listed as L,D); 0 mm in the data set on Candida albicans (Conc. 3.0 μg/desk, listed as L,D); 0 mm in the data set with Candida albicans (Conc. 6.0 μg/desk, listed as L,D); 0 mm in the data set on Candida albicans (Conc. 12.5 μg/desk, listed as L,D); 0 mm in the data set on Candida albicans (Conc. 25 μg/desk, listed as L,D). Further, the zone size in the data set on Candida albicans (62 μg/ml), in the data set on Candida albicans (125 μg/ml), with Candida albicans (250 μg/ml), with Candida albicans (500 μg/ml) and in the data set on Candida albicans (1000 μg/ml) was 0 mm throughout. In addition, the MIC is greater than 200 µg/mL in the data set on C. albicans (C. albicans B-310, 24 hours); greater than 100 µg/mL in the data set on C. albicans (C. albicans strain 3153A, listed as L-D); greater than 100 µg/mL against C. albicans (C. albicans strain B 311, listed as L-D); greater than 100 µg/mL in the data set with C. albicans (C. albicans strain BC 759, listed as L-D).

Consider `C[C@H](N)C(=O)N[C@H](C(=O)O)n1cc(F)c(=O)[nH]c1=O` [L-alanyl-2-(5-fluorouracil-1-yl)-L-glycine], for which the zone (Test A, disk diffusion; quantity not given) with Candida albicans (Conc. 1.5 μg/desk) turned out to be 16 mm; with Candida albicans (Conc. 3.0 μg/desk) it was 20 mm; in the data set on Candida albicans (Conc. 6.0 μg/desk) it was 22 mm; in the data set on Candida albicans (Conc. 12.5 μg/desk) it was 26 mm; in the data set with Candida albicans (Conc. 25 μg/desk), 30 mm. In addition, the zone size in the data set on Candida albicans (62 μg/ml) is listed as 16 mm; with Candida albicans (125 μg/ml), 20 mm; in the data set with Candida albicans (250 μg/ml) it was 22 mm; in the data set on Candida albicans (500 μg/ml) it was 26 mm; with Candida albicans (1000 μg/ml) it was 30 mm. Moreover, the minimum inhibitory concentration (MIC) amounted to 12.5 µg/mL (≈ 45.6 µM) in the data set on C. albicans (C. albicans B-310, 24 hours); 12.5 µg/mL (≈ 45.6 µM) in the data set on C. albicans (C. albicans strain 3153A); 12.5 µg/mL (≈ 45.6 µM) with C. albicans (C. albicans strain B 311); 1.6 µg/mL (≈ 5.83 µM) against C. albicans (C. albicans strain BC 759).

For the molecule `C[C@H](N)C(=O)NC(Sc1ccccc1)C(=O)O` (stereo partly drawn) [L-alanyl-L-(α-phenylthio)glycine], the “use as enzyme substrate” value on leucine aminopeptidase and at aminopeptidase M was “successfully used as enzyme substrates” throughout.

In the case of “L-alanyl-2-(2,6-dicarboxy-pyridyl-4-)-ethylthio-D,L-glycine [Example 4]”, in [2] (1 mM peptide, phosphate buffer 4 mM pH 7, no enzyme), the “Spontaneous Rate (warhead release)” value is on record as 65 p moles per min. The “t 1/2 (stability)” value in [2] (0.2 M phosphate buffer (pH 7.0)) is ~ 5000 min. In addition, the “λ(412) absorbance” value came out at 0.090 in [2] (Time (sec) 0, 1 mM peptide, Ellman's reagent 4 mg/ml, phosphate buffer 4 mM pH 7); 0.093 in data set [2] (Time (sec) 1, 1 mM peptide, phosphate buffer pH 7); 0.095 in data set [2] (Time (sec) 2, 1 mM peptide, phosphate buffer pH 7); 0.109 in data set [3] (Time (sec) 3, 1 mM peptide, phosphate buffer pH 7); 0.127 in [3] (Time (sec) 4); 0.142 in data set [3] (Time (sec) 5). Moreover, the “λ(412) absorbance” value amounted to 0.161 in data set [3] (Time (sec) 6), 0.180 in [3] (Time (sec) 7) and 0.199 in data set [3] (Time (sec) 8). Further, the non-enzymatic warhead release result in data set [2] (pH 7.5, compared with pH 7.0) is on record as “no noticeable increase”. Further, the “Rate plus 100 μg enzyme (warhead release)” value in data set [3] (1 mM peptide, phosphate buffer 4 mM pH 7, 100 μg leucine aminopeptidase) is given as 504 p moles per min. The “warhead release upon addition of Leucine Aminopeptidase” value in data set [3] (phosphate buffer pH 7.0, observation period 5 min) is reported as “the warhead was released”. In data set [4], the “enzymatically catalyzed release rate relative to pH 7.0” value is given as “twice the previous rate”.

“L-alanyl-2-(albendazole)-D,L-glycine [Example 22]”: the antiparasitic activity result is given as “comparable to, or greater than, albendazole” in the data set with Fasciola hepatica and “comparable to, or greater than, albendazole” in the data set with Nematospiroides dubius. Further, the nematostatic activity result with Caenorhabditis elegans is listed as “nematostatic activity was demonstrated”.

Consider “N-carbobenzoxy-L-alanyl-D,L-2-(3-aminopropylthio)-glycine, benzyl ester [Example 23]”, for which, on trypsin, the substrate for trypsin result is reported as “shown to be substrates”.
